Reference: patent US20250099464A1, “PHARMACEUTICAL COMPOSITIONS” (ViiV Healthcare UK (No.3) Limited, priority 2023, published 2025)

Assay: Cabotegravir population pharmacokinetic (PopPK) model
Parameters: species or system human
Experimental: A cabotegravir population pharmacokinetic (PopPK) model was built based on PK data following cabotegravir (CAB) 200 mg/mL intramuscular (IM) injections collected in 16 historical studies (Population pharmacokinetics of cabotegravir following administration of oral tablet and long-acting intramuscular injection in adult HIV-1-infected and uninfected subjects. Han K, Baker M, Lovern M, Paul P, Xiong Y, Patel P, Moore K P, Seal C S, Cutrell A G, D'Amico R D, Benn P D, Landovitz R J, Marzinke M A, Spreen W R, Ford S L. Br J Clin Pharmacol. 2022 October; 88(10):4607-4622. doi: 10.1111/bcp.15439. Epub 2022 Jul. 4. PMID: 35695476) and updated based on PK data from 19 studies: LAI116585, LAI117010, LAI117011, LAI117020, 201741, 201479, 201480, 205696, LAI116482 (LATTE), LAI115428, LAI116815, 200056 (LATTE-2), 201120 (ECLAIR), 201103 (HPTN077), 201584 (FLAIR), 201585 (ATLAS), 207966 (ATLAS-2M), 201738 (HPTN 083) and 201739 (HPTN 084). A total of 34,850 CAB plasma concentrations collected at various time points from 2,694 participants were used to build this PopPK model. […] The simulations were performed as follows: covariates including body weight, BMI and smoking status were resampled 5000 times from the distribution of these covariates for males and females, generating 5000 virtual male subjects and 5000 virtual female subjects. Individual PK parameters of the virtual subjects were calculated using subject-specific covariates and using the population parameter estimates, subject-specific NONMEM inter-individual errors (ETAs) sampled from the distributions that are decided by the estimated variance-covariate matrix of between-subject variability from the final population PK model. Concentration-versus-time profiles of the virtual subjects were calculated using the individual PK parameters. Residual variability (EPS) was included in the simulation. Median and 10th and 90th percentiles (80% prediction interval) of the simulated concentration-versus-time profiles of the virtual males and females were calculated. […]

KA2 in relation to BMI: decreased with increasing BMI
KA2 in relation to needle length: lower with longer needle length
Long-acting intramuscular gluteal absorption rate constant (KA2), lower in people assigned female at birth than people assigned male at birth (CAB 200 mg/mL IM injections): 46.5%
SMILES: C[C@H]1CO[C@@H]2Cn3cc(C(=O)NCc4ccc(F)cc4F)c(=O)c(O)c3C(=O)N12 [cabotegravir, (3S,11aR)—N-((2,4-difluorophenyl)methyl)-6-hydroxy-3-methyl-5,7-dioxo-2,3,5,11,11a-hexahydro(1,3)oxazolo(3,2-a)pyrido(1,2-d)pyrazine-8-carboxamide]
